According to paper PMC6523311, “Synthesis and Biological Evaluation of RGD–Cryptophycin Conjugates for Targeted Drug Delivery” (Pharmaceutics, 2019):

Experiments:
[1] = plasma metabolic stability assay, mouse plasma; assay type: in vitro ADME; settings: 24 h
Protocol: (§1) The sample preparation and the metabolic analysis of the conjugates was carried out similarly to a previously described method. In a 96-well plate, the stock solutions (3 mM in dimethyl sulfoxide (DMSO)) of the conjugates and the control compound were diluted with 250 μL of plasma (pooled heparinized mouse ICR/CD1 M plasma #08 or human plasma #MPLLIHP-M, #BHR1003077, BioreclamationIVT, Westbury, NY, USA) to give a 3-µM concentration and incubated at 37 °C. At each sampling time an aliquot of 30 µL was transferred into a 96-deep-well plate and the reaction was stopped with 120 µL of acetonitrile (ACN) containing 0.1% HCOOH and 400 ng/mL of warfarin as internal standard (IS). This mixture was centrifuged at 1100× g for 30 min at 4 °C and 50 µL of supernatants were transferred into a clean 96-deep-well plate and diluted with 50 µL of 0.1% HCOOH in water. Samples were stored at −80 °C prior to UPLC-HRMS analysis (see Supplementary Materials). The stability was determined based on the disappearance of the test compound as a function of incubation time, using area ratios (analyte peak area vs internal standard peak area). The elimination constant k was calculated by plotting mean disappearance values on a semi-logarithmic scale and fitting with a best fit linear regression using Microsoft Excel. The half-life (t1/2) expressed in hours was determined using equation: t1/2 = ln2/(−k). […]

[2] = system: M21-L human melanoma cells (αv-, αvβ3-); assay: MTT in vitro cytotoxicity assay, M21-L; assay type: cell-based; settings: 2 h treatment and additional 70 h incubation
Protocol: (§2) The human melanoma M21 and M21-L cells were kindly provided by Dr. David Cheresh and The Scripps Research Institute (La Jolla, CA, USA). Cells were cultured in RPMI 1640 supplemented with 10% fetal bovine serum (FBS), 1% L-glutamine and 1% Penicillin/Streptomycin in a humidified incubator at 37 °C and 5% CO2.
(§3) Cell viability was quantified by 3-(4,5-dimethylthiazol-2-yl)-2,5-diphenyltetrazolium bromide (MTT) assay. Cells were plated at a density of 3000 cells/well (Nunc® MicroWell® flat-bottom 96-well plate, Thermo Fisher Scientific) and incubated overnight to allow adherence. The following day, cells were treated with serial dilutions of each compound or 0.1% DMSO as control. After 2 h of incubation, cells were centrifuged at 1200 rpm for 5 min; supernatant containing the compounds was removed and replaced with fresh medium. Cells were further incubated for 70 h as described above, and at the end of treatment, 5 µL of MTT (5 mg/mL in deionized H2O, #M5655, Sigma Aldrich) were added to each well and the cells incubated for another 2 h. Finally, 100 µL of lysis buffer (10% SDS, 10 mM HCl) were added, and cells were placed in the incubator overnight for the formazan crystal solubilization. Absorbance at 540 nm was measured using FLUOstar Omega (BMG Labtech, Ortenberg, Germany) instrument and the growth inhibition ratio was calculated. Blank controls detecting cell-free media absorbance were performed in parallel. Three experimental replicates were used. The half-maximal inhibitory concentration values (IC50) were obtained from viability curves by fitting data to the four-parameter logistic equation using GraphPad Prism 6 (GraphPad Software, San Diego, CA, USA). The cell viability was expressed as percentage relative to the respective control conditions.

[3] = system: M21 human melanoma cells (αvβ3+); assay: MTT in vitro cytotoxicity assay, M21; assay type: cell-based; settings: for IC50: Homo sapiens, MTT, 2 h treatment and additional 70 h incubation
Protocol: as §2, §3

[4] = plasma metabolic stability assay, human plasma; assay type: in vitro ADME; settings: 24 h
Protocol: as §1

[5] = biological target: T1, human αvβ3 integrin (Homo sapiens, UniProt P05106+P06756, DEL719-788); assay: competitive ELISA-like integrin binding assay (immobilized vitronectin, soluble integrin); settings: competition with immobilized vitronectin
T1 construct: purchased R&D Systems 3050-AV-050

[6] = biological target: T2, bovine spleen cathepsin B (Bos taurus, UniProt P07688); assay: cathepsin B cleavage assay; assay type: in vitro ADME; settings: cathepsin B 1 U/mL, 37 °C, pH 5.5, 5 µM substrate
T2 construct: cathepsin B (bovine spleen cathepsin B, #C6286, Sigma Aldrich); purchased Sigma Aldrich C6286; host or cells: bovine spleen
Protocol: L-cysteine (#C8152, Sigma Aldrich) was dissolved in acetate buffer/ethylenediaminetetraacetic acid (EDTA) 1 mM pH 5.5 to get a solution with a final concentration of L-cysteine of 28 mM. This solution was used to dilute an aliquot of cathepsin B (bovine spleen cathepsin B, #C6286, Sigma Aldrich) to 1.11 U/mL. Sample containing cathepsin B was pre-incubated at 37 °C for 15 min and then split into 45-µL aliquots in Eppendorf tubes, two replicates for each incubation time. Aliquots of 5 µL of 50 µM solutions of the substrates prepared in MeOH/H2O (50/50) were added to each tube, to get a final concentration of 5 µM. Tubes corresponding to t = 0 min contained 100 µL of 1% HCOOH in MeOH and were put in an ice bath to stop the reaction. All the other tubes were incubated at 37 °C in an oscillating thermostatic bath and reaction was stopped at the following incubation times: 0.25, 0.5, 1, 2, 4, and 6 h, as described for t = 0 min samples. Samples were centrifuged for 10 min at 14,000 rpm at 4 °C and filtered with regenerated cellulose syringe filters prior to injection in the HPLC-MS system (see Supplementary Materials). […] Substrates and possible metabolites were quantified based on calibration curves prepared in acetate buffer/EDTA/L-cysteine.

| SMILES | stability in mouse plasma [1] | IC50 [2] [nM] | IC50 [3] [nM] | fold higher biological activity than cryptophycin-55 glycinate ([3]; M21 and M21-L cells, same test conditions) | stability in human plasma [4] | IC50 [5] [nM] | cleavage and metabolism upon incubation with cathepsin B [6] |
| --- | --- | --- | --- | --- | --- | --- | --- |
| COc1ccc(C[C@H]2NC(=O)/C=C/C[C@@H]([C@H](C)[C@H]3O[C@@H]3c3ccccc3)OC(=O)[C@H](CC(C)C)OC(=O)C(C)(C)CNC2=O)cc1Cl [compound 2, cryptophycin-52, reference compound] | significant metabolism | 0.02 | 0.07 | 10-20 fold |  |  |  |
| COc1ccc(C[C@H]2NC(=O)/C=C/C[C@@H]([C@H](C)[C@@H](OC(=O)CN)[C@@H](Cl)c3ccccc3)OC(=O)[C@H](CC(C)C)OC(=O)C(C)(C)CNC2=O)cc1Cl [compound 4, Cryptophycin-55 glycinate] | markedly improved stability compared to the parent compound | 0.14 ± 0.08 | 0.75 ± 0.11 |  | good stability |  |  |
| [N-]=[N+]=NCCC(=O)NCCCC[C@@H]1NC(=O)[C@@H](Cc2ccccc2)NC(=O)[C@H](CC(=O)O)NC(=O)CNC(=O)[C@H](CCCNC(=N)N)NC1=O [compound 9] |  |  |  |  |  | 0.71 |  |
| COc1ccc(C[C@H]2NC(=O)/C=C/C[C@@H]([C@H](C)[C@@H](OC(=O)CNC(=O)[C@@H]3CCCN3C(=O)CN)[C@@H](Cl)c3ccccc3)OC(=O)[C@H](CC(C)C)OC(=O)C(C)(C)CNC2=O)cc1Cl [compound 12, Gly-Pro-Cry-55gly] |  | 0.039 ± 0.01 | 0.15 ± 0.03 |  |  |  | not further metabolized to cryptophycin-55 glycinate |
